Series [1] relates to laser-induced CNV in Cynomolgus monkey. Briefly: Laser-induced choroidal neovascular AMD study in the Cynomolgus monkey, Grade IV lesions. The class given is in vivo. The method, then: Cynomolgus monkeys were dosed with vehicle or the CCR3 antagonist tool compound the '415 compound as shown in Table A for 29 days with laser occurring […]. […]
The macula of each eye underwent laser treatment with a 532-nm diode green laser burns (OcuLight GL, IRIDEX Corp Inc, Mountain View, Calif.) using a slit lamp delivery system and a Kaufman-Wallow (Ocular Instruments Inc, Bellevue, Wash.) plano fundus contact lens. Animals were anesthetized and nine areas symmetrically placed in the macula of each eye. The laser parameters included a 75-micron spot size and 0.1-second duration. The power setting used was assessed by the ability to produce a blister and a small haemorrhage. Unless haemorrhage is observed with the first laser treatment, a second laser spot will be placed adjacent to the first following the same laser procedure (except the wattage would be adjusted). For areas not adjacent to the fovea, the initial power setting was 500 mW; if a second spot is placed, the power was set to 650 mW. For the area adjacent to the fovea, the power settings was 400 mW (initial treatment) and 550 mW (second treatment). […]
Animals were fasted before fluorescein angiography for at least 2 hours prior to being anesthetized and the eyes dilated with a mydriatic agent. […] Comparison of the incidence of Grade IV lesions between groups was evaluated.

A further series addresses T1, Cynomolgus monkey CCR3 (Macaca fascicularis, UniProt Q9BDS8).
T1 construct: from tissue; host or cells: Cynomolgus monkey whole blood (eosinophils)
T1 sequence (Q9BDS8 1-355): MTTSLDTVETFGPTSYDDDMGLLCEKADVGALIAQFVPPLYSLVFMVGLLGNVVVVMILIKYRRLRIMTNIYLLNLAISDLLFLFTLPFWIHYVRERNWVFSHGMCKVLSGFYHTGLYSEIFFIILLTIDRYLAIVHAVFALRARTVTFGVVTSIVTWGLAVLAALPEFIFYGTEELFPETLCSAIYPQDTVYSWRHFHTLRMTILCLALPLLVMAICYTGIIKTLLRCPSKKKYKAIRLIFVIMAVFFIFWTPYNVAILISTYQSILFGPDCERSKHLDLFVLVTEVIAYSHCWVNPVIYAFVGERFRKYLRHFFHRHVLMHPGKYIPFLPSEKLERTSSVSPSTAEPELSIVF
Briefly: Cynomolgus monkey whole blood eotaxin-stimulated eosinophil shape change assay. The class given is cell-based. The method, then:
Blood (10 mL) was taken from Cynomolgus monkeys and 1.1 ml of 3.8% sodium citrate solution added. Aliquots (90 μl) were incubated with antagonist at room temperature for 10 minutes then transferred to BSA-coated micronic tubes containing agonist (10 μl human eotaxin (Peprotech) Eotaxin was present at final concentrations between 0 and 1000 nM. The cells were incubated at 37° C. for a further 4 minutes before addition of […] of ice-cold fixation buffer (a ¼ dilution of 1x Cellfix (Becton Dickinson)). After a minimum of 2 minutes the fixed samples were transferred into 2 ml of ice cold erythrocyte lysis buffer (155 mM NH4Cl, 10 mM KHCO3) and incubated on ice until lysis was complete (˜30 minutes). The mean forward scatter of the eosinophil population was then determined on a FACScalibur flow cytometer.
The concentration response curve of eotaxin-1 on eosinophil shape change in Cynomolgus whole blood and the effect of pre-incubation of 10 nM and 100 nM the '415 compound is shown in FIG. 11.

The target in series [2] is T2, Cynomolgus whole blood CCR3 (Macaca fascicularis, UniProt Q9BDS8).
T2 construct: from tissue; host or cells: Cynomolgus monkey whole blood (eosinophils)
T2 sequence (Q9BDS8 1-355): T1 sequence (Q9BDS8 1-355)
Briefly: Fractional receptor occupancy at trough in Cynomolgus monkey. The class given is in vivo. Particulars: at trough (8 hours); both 9 mg/kg/day and 60 mg/kg/day, TID.

The nature of series [3]: Exposure in Cynomolgus monkey. Particulars: in vivo.
Series [4] concerns retinal neovascularization in C57BL/6 mice. Nature of the series: Oxygen-induced retinopathy, area of retinal neovascularization. The class given is in vivo. Particulars: 5 ug peri-ocularly every 5 days. The method, then: C57BL/6 mice placed in 75% O2 at postnatal day (P) 7 and at P12 were returned to room air and treatment initiated with compound or vehicle. At P17, the area of retinal NV on the surface of the retina was measured as described previously (Shen et al., 2007). Briefly, P17 mice were given an intraocular injection of 1 μl of rat anti-mouse platelet endothelial cell adhesion molecule-1 (PECAM-1) antibody (Pharmingen, San Jose, Calif., USA); after 12 h, they were euthanized, and eyes were fixed in PBS-buffered formalin for 5 h at room temperature. Retinas were dissected, washed, and incubated with goat-anti rat polyclonal antibody conjugated with Alexa 488 (Invitrogen, Carlsbad, Calif., USA) at 1:500 dilution at room temperature for 45 min and flat mounted. An observer masked with respect to treatment group measured the area of NV per retina by image analysis.
(see, FIGS. 12 and 13). In systemic experiments both eyes were examined and no significant differences were observed between CCR3 inhibitor '994 and vehicle treated groups. In topical experiments no significant differences were noted between CCR3 inhibitor '994 and vehicle groups nor treated and fellow eye in the CCR3 inhibitor '994 treated group. […] Consequently SU4312 acts similarly on retinal neovascularization to that of an alternative receptor tyrosine kinase inhibitor pazopanib which was effective in limiting choroidal neovascularization.

The test system of series [5] is laser-induced model of CNV AMD. To be noted: oral dosing; Mizutani et al., 2011; cited from earlier work.

Here are results for 3 compounds from patent US20140335083A1, “METHODS OF TREATMENT AND PREVENTION OF EYE DISEASES” (GLAXO GROUP LIMITED, priority 2011, published 2014).

Read-outs that look alike come from different tables or passages of the source.

Take `Cn1nnc(CNC(=O)NC[C@H]2CN(Cc3ccc(Cl)c(Cl)c3)CCO2)n1` [the '415 compound, (S)-1-((4-(3,4-dichlorobenzyl)morpholin-2-yl)methyl)-3-((2-methyl-2H-tetrazol-5-yl)methyl)urea]: the “effect on the generation of grade IV lesions” value in series [1] (20 mg/kg TID po, fluorescence angiography at 16, 24 and 30 days post-laser) is given as “statistically robust effect”. Besides, in series [1] (lower dose (3 mg/kg TID po)), the “effect on the number of grade IV lesions” value is “not statistically different from controls”. The “inhibition of human eotaxin-induced eosinophil shape change” value against Cynomolgus monkey CCR3 (Cynomolgus whole blood) was “concentration-dependent, surmountable inhibition”. Besides, the Kb at Cynomolgus monkey CCR3 (depending on experiment, read-out: pA2, potency against Cynomolgus monkey CCR3 (converted)) is 10 to 100 nM; at Cynomolgus monkey CCR3 (eotaxin-1 stimulated eosinophil shape change in Cynomolgus whole blood, read-out: mean pA2 (Schild analysis) (converted)) it was 15.8 nM. Further, the fractional receptor occupancy in series [2] is greater than 95%. The “exposure in Cynomolgus monkey” value in series [3] is given as “reasonable exposure in this primate with low inter-animal variability”.

In the case of `CN(C)c1ccc(/C=C2\C(=O)Nc3ccccc32)cc1` [SU4312], in series [4], the “effect on retinal neovascularization” value is listed as “effective inhibitor”; the “p, reduction in retinal neovascularization, treated versus fellow (non-treated) eyes” value is less than 0.004; the “p, reduction in retinal neovascularization, treated versus vehicle treated eyes” value is given as less than 0.003.

Consider `Cc1ccc[n+]([O-])c1C(=O)N1CCC(=CC(=O)NC2CCN(Cc3ccc4cc(F)ccc4c3)C2)CC1` (centres unmarked) [YM-344031], for which the “efficacy in a laser-induced model of CNV AMD” value in series [5] is given as “effective”.
